Where a name gives a salt, the structure may show the parent alone.
What was measured:
[1] = system: healthy volunteers; test: 24 h long-term infusion study: local tolerability and safety; type: in vivo, human; details: 24 h infusion
Protocol: (§1) A single centre prospective, randomized, double blind, crossover, pharmacokinetic, safety and tolerability study to compare long-term infusion administration of AOP LDLL600 against esmolol in healthy volunteers was performed.
(§2) Landiolol hydrochloride lyophilized (LDLL600) comprises 600 mg landiolol hydrochloride, 600 mg mannitol, pH 6.5. The primary packing of LDLL600 is 50 ml vial, the reconstitution volume is 50 ml and the final product concentration is 12 mg/mL landiolol HCl.
(§3) 12 subjects were administered AOP LDLL600 or Esmolol (Brevibloc, 2500 mg/250 ml) in 1:1 ratio in double-blind, randomized, cross-over setting. PK, systemic cardiovascular and local tolerability and safety of the 24 h-long term infusions of three dose levels of both IMPs during each treatment period were assessed.
(§4) Landiolol was infused over 24 h in a dose of 10 μg/KG/min (2 hrs), followed by 20 μg/KG/min (2 hrs), followed by 40 μg/KG/min for 20 hrs.
(§5) Dosing algorithm was body weight divided by 20, 10 and 5 in ml/h giving 10, 20 and 40 μg/KG/min at a concentration of 12 mg/ml. No severe adverse drug reactions, mild local reactions, 1 severe local reaction (Esmolol High Dose).
(§6) Landiolol was infused over 24 h in a dose of 10, 20 and 40 μg/KG/min, i.e. 10 μg/KG/min landiolol were administered for 2 hrs, followed by 2 hrs administration of 20 μg/KG/min and further followed by 20 hrs administration of 40 μg/KG/min.

[2] = system: healthy volunteers; test: 24 h long-term infusion study, AOP LDLL600 against esmolol: heart rate; type: in vivo, human
Protocol: as §1, §2, §3, §4, §5, §6
Post-infusion follow up measurements were performed immediately after 20 hrs administration study, i.e. 2, 4 min etc. after stop of landiolol administration.

[3] = FU Predose (end of 20 h HD, infusion stop)
[4] = FU post-infusion, 20 h 2 min (2 min after infusion stop)
[5] = FU post-infusion, 20 h 4 min (4 min after infusion stop)
[6] = FU post-infusion, 20 h 6 min (6 min after infusion stop)
[7] = FU post-infusion, 20 h 8 min (8 min after infusion stop)
[8] = FU post-infusion, 20 h 12 min (12 min after infusion stop)
[9] = FU post-infusion, 20 h 16 min (16 min after infusion stop)
[10] = FU post-infusion, 20 h 20 min (20 min after infusion stop)
[11] = FU post-infusion, 20 h 30 min (30 min after infusion stop)
[12] = FU post-infusion, 21 h (1 h after infusion stop)
[13] = FU post-infusion, 22 h (2 h after infusion stop)
[14] = FU post-infusion, 24 h (4 h after infusion stop)
[15] = FU post-infusion, 26 h (6 h after infusion stop)
[16] = HD infusion (landiolol 40, esmolol 200 μg/kg/min, after LD and MD), 2 min
[17] = HD infusion (landiolol 40, esmolol 200 μg/kg/min, after LD and MD), 3 min
[18] = HD infusion (landiolol 40, esmolol 200 μg/kg/min, after LD and MD), 4 min
[19] = HD infusion (landiolol 40, esmolol 200 μg/kg/min, after LD and MD), 6 min
[20] = HD infusion (landiolol 40, esmolol 200 μg/kg/min, after LD and MD), 8 min
[21] = HD infusion (landiolol 40, esmolol 200 μg/kg/min, after LD and MD), 12 min
[22] = HD infusion (landiolol 40, esmolol 200 μg/kg/min, after LD and MD), 16 min
[23] = HD infusion (landiolol 40, esmolol 200 μg/kg/min, after LD and MD), 20 min
[24] = HD infusion (landiolol 40, esmolol 200 μg/kg/min, after LD and MD), 30 min
[25] = HD infusion (landiolol 40, esmolol 200 μg/kg/min, after LD and MD), 60 min
[26] = HD infusion (landiolol 40, esmolol 200 μg/kg/min, after LD and MD), 90 min
[27] = HD infusion (landiolol 40, esmolol 200 μg/kg/min, after LD and MD), 2 h
[28] = HD infusion (landiolol 40, esmolol 200 μg/kg/min, after LD and MD), 4 h
[29] = HD infusion (landiolol 40, esmolol 200 μg/kg/min, after LD and MD), 8 h
[30] = HD infusion (landiolol 40, esmolol 200 μg/kg/min, after LD and MD), 12 h
[31] = HD infusion (landiolol 40, esmolol 200 μg/kg/min, after LD and MD), 16 h
[32] = HD infusion (landiolol 40, esmolol 200 μg/kg/min, after LD and MD), 20 h (end)
[33] = LD infusion (landiolol 10, esmolol 50 μg/kg/min), 2 min
[34] = LD infusion (landiolol 10, esmolol 50 μg/kg/min), 3 min

## COC(=O)CCc1ccc(OCC(O)CNC(C)C)cc1 (stereo not drawn) [Esmolol, Esmolol hydrochloride]
[1]; three dose levels
  local reactions (percent of subjects): 50.0%
  local reactions (subjects/total): 7/14
[1]; Esmolol High Dose (200 μg/kg/min)
  severe local reaction (number): 1
[2]; [3]
  change of heart rate from predose, Mean (SD): 1.5 (9.05) beats per minute
  heart rate, Mean (SD): 69.1 (6.40) beats per minute
[2]; [4]
  change of heart rate from predose, Mean (SD): 1.4 (7.57) beats per minute
  heart rate, Mean (SD): 69.0 (4.88) beats per minute
[2]; [5]
  change of heart rate from predose, Mean (SD): 3.6 (8.77) beats per minute
  heart rate, Mean (SD): 71.3 (7.04) beats per minute
[2]; [6]
  change of heart rate from predose, Mean (SD): 5.4 (8.11) beats per minute
  heart rate, Mean (SD): 73.1 (7.89) beats per minute
[2]; [7]
  change of heart rate from predose, Mean (SD): 5.4 (8.10) beats per minute
  heart rate, Mean (SD): 73.1 (7.57) beats per minute
[2]; [8]
  change of heart rate from predose, Mean (SD): 7.1 (8.43) beats per minute
  heart rate, Mean (SD): 74.7 (8.62) beats per minute
[2]; [9]
  change of heart rate from predose, Mean (SD): 6.4 (7.44) beats per minute
  heart rate, Mean (SD): 74.0 (7.99) beats per minute
[2]; [10]
  change of heart rate from predose, Mean (SD): 6.8 (7.17) beats per minute
  heart rate, Mean (SD): 74.4 (7.04) beats per minute
[2]; [11]
  change of heart rate from predose, Mean (SD): 9.1 (8.04) beats per minute
  heart rate, Mean (SD): 76.8 (8.51) beats per minute
[2]; [12]
  change of heart rate from predose, Mean (SD): 5.5 (8.15) beats per minute
  heart rate, Mean (SD): 73.1 (7.50) beats per minute
[2]; [13]
  change of heart rate from predose, Mean (SD): 2.6 (8.02) beats per minute
  heart rate, Mean (SD): 70.2 (7.06) beats per minute
[2]; [14]
  change of heart rate from predose, Mean (SD): 4.5 (9.51) beats per minute
  heart rate, Mean (SD): 72.1 (7.37) beats per minute
[2]; [15]
  change of heart rate from predose, Mean (SD): 5.1 (10.85) beats per minute
  heart rate, Mean (SD): 72.8 (9.74) beats per minute
[2]; HD Predose (end of 2 h MD)
  change of heart rate from predose, Mean (SD): −3.9 (7.75) beats per minute
  heart rate, Mean (SD): 63.7 (4.86) beats per minute
[2]; [16]
  change of heart rate from predose, Mean (SD): −2.5 (8.96) beats per minute
  heart rate, Mean (SD): 65.1 (7.10) beats per minute
[2]; [17]
  change of heart rate from predose, Mean (SD): −3.2 (8.99) beats per minute
  heart rate, Mean (SD): 64.4 (4.38) beats per minute
[2]; [18]
  change of heart rate from predose, Mean (SD): −3.1 (8.16) beats per minute
  heart rate, Mean (SD): 64.5 (4.74) beats per minute
[2]; [19]
  change of heart rate from predose, Mean (SD): −2.8 (8.97) beats per minute
  heart rate, Mean (SD): 64.9 (4.29) beats per minute
[2]; [20]
  change of heart rate from predose, Mean (SD): −3.7 (10.45) beats per minute
  heart rate, Mean (SD): 63.9 (7.14) beats per minute
[2]; [21]
  change of heart rate from predose, Mean (SD): −2.9 (9.19) beats per minute
  heart rate, Mean (SD): 64.8 (4.39) beats per minute
[2]; [22]
  change of heart rate from predose, Mean (SD): −3.3 (8.32) beats per minute
  heart rate, Mean (SD): 64.4 (7.16) beats per minute
[2]; [23]
  change of heart rate from predose, Mean (SD): −0.4 (11.69) beats per minute
  heart rate, Mean (SD): 67.3 (7.26) beats per minute
[2]; [24]
  change of heart rate from predose, Mean (SD): −2.3 (9.26) beats per minute
  heart rate, Mean (SD): 65.4 (5.69) beats per minute
[2]; [25]
  change of heart rate from predose, Mean (SD): 4.9 (9.60) beats per minute
  heart rate, Mean (SD): 72.6 (6.64) beats per minute
[2]; [26]
  change of heart rate from predose, Mean (SD): 5.9 (8.95) beats per minute
  heart rate, Mean (SD): 73.6 (4.57) beats per minute
[2]; [27]
  change of heart rate from predose, Mean (SD): 6.2 (9.32) beats per minute
  heart rate, Mean (SD): 73.9 (4.55) beats per minute
[2]; [28]
  change of heart rate from predose, Mean (SD): 2.8 (9.60) beats per minute
  heart rate, Mean (SD): 70.4 (5.03) beats per minute
[2]; [29]
  change of heart rate from predose, Mean (SD): 0.3 (10.34) beats per minute
  heart rate, Mean (SD): 67.9 (5.95) beats per minute
[2]; [30]
  change of heart rate from predose, Mean (SD): 0.7 (10.94) beats per minute
  heart rate, Mean (SD): 68.4 (8.30) beats per minute
[2]; [31]
  change of heart rate from predose, Mean (SD): 0.3 (9.27) beats per minute
  heart rate, Mean (SD): 67.9 (7.49) beats per minute
[2]; [32]
  change of heart rate from predose, Mean (SD): 1.5 (9.05) beats per minute
  heart rate, Mean (SD): 69.1 (6.40) beats per minute
[2]; [33]
  change of heart rate from predose, Mean (SD): −0.7 (6.22) beats per minute
  heart rate, Mean (SD): 66.9 (6.28) beats per minute
[2]; [34]
  change of heart rate from predose, Mean (SD): −1.9 (5.34) beats per minute
  heart rate, Mean (SD): 65.7 (4.91) beats per minute

Reference: patent publication US10722516B2, “Use of landiolol hydrochloride in the long-term treatment of tachyarrhythmias” (AOP Orphan Pharmaceuticals AG, priority 2013, dated 2020)
